Experimental data reported in patent US20040023994A1 (priority 2002, published 2004).
Read-outs that look alike come from different tables or passages of the source.

Experiments:
KM12 = details: KM12, Colon, NCI database, cited from earlier work; for CC50: read-out: LC50 (the source's name)
MDA-N = details: Breast, NCI database, cited from earlier work; for CC50: read-out: LC50 (the source's name)
ACHN = details: Renal, NCI database, cited from earlier work; for CC50: read-out: LC50 (the source's name)
OVCAR-3 = details: OVCAR-3, Ovarian, NCI database, cited from earlier work; for CC50: read-out: LC50 (the source's name)
MOLT-4 = details: MOLT-4, Leukemia, NCI database, cited from earlier work; for CC50: read-out: LC50 (the source's name)
HS 578T = details: Breast, NCI database, cited from earlier work; for CC50: read-out: LC50 (the source's name)
NCI-H23 [1] = details: NCI-H23, Non-Small Cell Lung, NCI database, cited from earlier work; for CC50: read-out: LC50 (the source's name)
COLO 205 = details: COLO 205, Colon, NCI database, cited from earlier work; for CC50: read-out: LC50 (the source's name)
SK-MEL-5 = details: SK-MEL-5, Melanoma, NCI database, cited from earlier work; for CC50: read-out: LC50 (the source's name)
TK-10 = details: TK-10, Renal, NCI database, cited from earlier work; for CC50: read-out: LC50 (the source's name)
OVCAR-5 = details: OVCAR-5, Ovarian, NCI database, cited from earlier work; for CC50: read-out: LC50 (the source's name)
MDA-MB-231/ATCC = details: Breast, NCI database, cited from earlier work; for CC50: read-out: LC50 (the source's name)
SNB-75 = details: SNB-75, CNS, NCI database, cited from earlier work; for CC50: read-out: LC50 (the source's name)
BT-549 [2] = details: BT-549, Breast, NCI database, cited from earlier work; for CC50: read-out: LC50 (the source's name)
IGR-OV1 = details: IGR-OV1, Ovarian, NCI database, cited from earlier work; for CC50: read-out: LC50 (the source's name)
HOP-62 = details: HOP-62, Non-Small Cell Lung, NCI database, cited from earlier work; for CC50: read-out: LC50 (the source's name)
SR = details: Leukemia, NCI database, cited from earlier work; for CC50: read-out: LC50 (the source's name)
MALME-3M = details: Melanoma, NCI database, cited from earlier work; for CC50: read-out: LC50 (the source's name)
CCRF-CEM = details: 48 h
LOX IMVI = details: 48 h
SN12C = assay type: cell-based; details: Renal, 48 h
NCI-H23 [3] = assay type: cell-based; details: NCI-H23, Non-Small Cell Lung, 48 h
BT-549 [4] = system: BT-549
[5] = Homo sapiens, read-out: LC50 (the source's name)

For Sc1ncnc2nc[nH]c12 [6-MP, 6-mercaptopurine], the GI50 (KM12) is given as 7.31 µM, the TGI (KM12) is given as >100 µM and the CC50 (KM12) is given as > 100 µM. The CC50 (MDA-N) was > 100 µM, the GI50 (MDA-N) was 1.5 µM and the TGI (MDA-N) was >100 µM. For the same molecule, the CC50 (ACHN) was > 100 µM, the GI50 (ACHN) was 6.3 µM and the TGI (ACHN) was >100 µM. For the same molecule, the GI50 (OVCAR-3) was 0.71 µM, the TGI (OVCAR-3) was >100 µM and the CC50 (OVCAR-3) was > 100 µM. The GI50 (MOLT-4) was 1.51 µM, the TGI (MOLT-4) was >100 µM and the CC50 (MOLT-4) was > 100 µM. For the same molecule, the CC50 (HS 578T) was > 100 µM, the GI50 (HS 578T) was 15.7 µM and the TGI (HS 578T) was >100 µM. For the same molecule, the GI50 (NCI-H23 [1]) was 3.74 µM, the TGI (NCI-H23 [1]) was >100 µM and the CC50 (NCI-H23 [1]) was > 100 µM. For the same molecule, the GI50 (COLO 205) was 4.68 µM, the TGI (COLO 205) was >100 µM and the CC50 (COLO 205) was > 100 µM. For the same molecule, the GI50 (SK-MEL-5) was 8.59 µM, the TGI (SK-MEL-5) was >100 µM and the CC50 (SK-MEL-5) was > 100 µM. The GI50 (TK-10) was 1.83 µM, the TGI (TK-10) was >100 µM and the CC50 (TK-10) was > 100 µM. The GI50 (OVCAR-5) was 7.85 µM, the TGI (OVCAR-5) was >100 µM and the CC50 (OVCAR-5) was > 100 µM. For the same molecule, the CC50 (MDA-MB-231/ATCC) was > 100 µM, the GI50 (MDA-MB-231/ATCC) was 16.4 µM and the TGI (MDA-MB-231/ATCC) was >100 µM. For the same molecule, the GI50 (SNB-75) was 7.93 µM, the TGI (SNB-75) was >100 µM and the CC50 (SNB-75) was > 100 µM. The GI50 (BT-549 [2]) was > 100 µM, the TGI (BT-549 [2]) was >100 µM and the CC50 (BT-549 [2]) was > 100 µM. The GI50 (IGR-OV1) was 8.59 µM, the TGI (IGR-OV1) was >100 µM and the CC50 (IGR-OV1) was > 100 µM. The GI50 (HOP-62) was 1.69 µM, the TGI (HOP-62) was >100 µM and the CC50 (HOP-62) was > 100 µM. For the same molecule, the CC50 (SR) was > 100 µM, the GI50 (SR) was 1.27 µM and the TGI (SR) was >100 µM. For the same molecule, the CC50 (MALME-3M) was > 100 µM, the GI50 (MALME-3M) was 4.28 µM and the TGI (MALME-3M) was >100 µM.
For CC(=O)C=CSc1ncnc2nc[nH]c12 [cis-AVTP, 6-(2-acetylvinylthio) purine], the GI50 (RPMI-8226; Homo sapiens, RPMI-8226, 48 h) was 0.12 µM, the CC50 (RPMI-8226; Homo sapiens, RPMI-8226, 48 h, read-out: LC50) was > 100 µM and the TGI (RPMI-8226; RPMI-8226, Leukemia, 48 h) was 1.67 µM. The GI50 (CCRF-CEM; Homo sapiens) was 0.2 µM, the CC50 (CCRF-CEM; Homo sapiens, read-out: LC50) was > 100 µM and the TGI (CCRF-CEM; Leukemia) was 2.17 µM. For the same molecule, the GI50 (LOX IMVI; Homo sapiens) was 0.03 µM, the CC50 (LOX IMVI; Homo sapiens, read-out: LC50) was > 100 µM and the TGI (LOX IMVI; Melanoma) was 2.23 µM. The GI50 (SF-539; Homo sapiens, SF-539, 48 h) was 0.65 µM, the CC50 (SF-539; Homo sapiens, SF-539, 48 h, read-out: LC50) was 11.8 µM and the TGI (SF-539; SF-539, CNS, 48 h) was 2.86 µM. The GI50 (OVCAR-8; Homo sapiens, OVCAR-8, 48 h) was 1.53 µM, the CC50 (OVCAR-8; Homo sapiens, OVCAR-8, 48 h, read-out: LC50) was > 100 µM and the TGI (OVCAR-8; OVCAR-8, Ovarian, 48 h) was 5.93 µM. It also gave a GI50 (SN12C; Homo sapiens) of 2.03 µM, a CC50 (SN12C; [5]) of 28.1 µM and a TGI (SN12C) of 5.75 µM. For the same molecule, the GI50 (NCI-H23 [3]; Homo sapiens) was 1.48 µM, the CC50 (NCI-H23 [3]; [5]) was 27.8 µM and the TGI (NCI-H23 [3]) was 4.58 µM. The TGI (BT-549 [4]; BT-549, Breast, 48 h) was 3.48 µM, the GI50 (BT-549 [4]; Homo sapiens, BT-549, 48 h) was 1.24 µM and the CC50 (BT-549 [4]; Homo sapiens, BT-549, 48 h, read-out: LC50) was 9.78 µM. It also gave a GI50 (MDA-MB-435; Homo sapiens, MDA-MB-435, 48 h) of 0.56 µM, a CC50 (MDA-MB-435; Homo sapiens, MDA-MB-435, 48 h, read-out: LC50) of 9.8 µM and a TGI (MDA-MB-435; MDA-MB-435, Breast, 48 h) of 2.75 µM.
For Nc1nc2nc[nH]c2c(=S)[nH]1 [6-TG, 6-thioguanine], the GI50 (KM12) is listed as 1.72 µM, the TGI (KM12) is listed as 31.5 µM and the CC50 (KM12) is listed as > 100 µM. The CC50 (MDA-N) was > 100 µM, the GI50 (MDA-N) was 1.01 µM and the TGI (MDA-N) was 26.4 µM. For the same molecule, the CC50 (ACHN) was > 100 µM, the GI50 (ACHN) was 1.93 µM and the TGI (ACHN) was >100 µM. The GI50 (OVCAR-3) was 0.71 µM, the TGI (OVCAR-3) was 6.68 µM and the CC50 (OVCAR-3) was > 100 µM. The GI50 (MOLT-4) was 0.27 µM, the TGI (MOLT-4) was 15.4 µM and the CC50 (MOLT-4) was > 100 µM. For the same molecule, the CC50 (HS 578T) was > 100 µM, the GI50 (HS 578T) was 7.26 µM and the TGI (HS 578T) was >100 µM. The GI50 (NCI-H23 [1]) was 1.06 µM, the TGI (NCI-H23 [1]) was 22.9 µM and the CC50 (NCI-H23 [1]) was > 100 µM. For the same molecule, the GI50 (COLO 205) was 1.67 µM, the TGI (COLO 205) was 8.75 µM and the CC50 (COLO 205) was 34.5 µM. The GI50 (SK-MEL-5) was 3.53 µM, the TGI (SK-MEL-5) was 16.4 µM and the CC50 (SK-MEL-5) was 88.1 µM. For the same molecule, the GI50 (TK-10) was 1.04 µM, the TGI (TK-10) was 78.3 µM and the CC50 (TK-10) was > 100 µM. The GI50 (OVCAR-5) was 0.65 µM, the TGI (OVCAR-5) was 47.5 µM and the CC50 (OVCAR-5) was > 100 µM. The CC50 (MDA-MB-231/ATCC) was > 100 µM, the GI50 (MDA-MB-231/ATCC) was 1.94 µM and the TGI (MDA-MB-231/ATCC) was >100 µM. The GI50 (SNB-75) was 1.42 µM, the TGI (SNB-75) was 41.3 µM and the CC50 (SNB-75) was > 100 µM. The GI50 (BT-549 [2]) was 3.59 µM, the TGI (BT-549 [2]) was >100 µM and the CC50 (BT-549 [2]) was > 100 µM. The GI50 (IGR-OV1) was 4.79 µM, the TGI (IGR-OV1) was >100 µM and the CC50 (IGR-OV1) was > 100 µM. For the same molecule, the GI50 (HOP-62) was 0.73 µM, the TGI (HOP-62) was 28.4 µM and the CC50 (HOP-62) was > 100 µM. The CC50 (SR) was > 100 µM, the GI50 (SR) was 0.19 µM and the TGI (SR) was 17.9 µM. For the same molecule, the CC50 (MALME-3M) was > 100 µM, the GI50 (MALME-3M) was 1.34 µM and the TGI (MALME-3M) was 28.6 µM.
